Results reported in article PMC11069587, “An Elastin-like Polypeptide-fusion peptide targeting capsid-tegument interface as an antiviral against cytomegalovirus infection” (Scientific Reports, 2024).
Where no end group is shown, it is not given here.

Legend:
[1] = test system: uninfected MEFs; assay: Cell viability of uninfected MEFs, trypan blue exclusion; settings: 80 μM, mock-infected, 3 days
Protocol: Cells were harvested at 3 dpi, and cell viability was assessed by trypan blue exclusion assay for both uninfected and infected groups. The standard error of the mean from three different experiments were plotted as error bars.
MEFs were plated in 24-well tissue-culture plates and grown to confluency in triplicates. […] At 3 dpi, the CMC (carboxymethylcellulose) + DMEM overlay was removed. The cells were then harvested by trypsinization to determine the cell viability using trypan blue exclusion with a TC20 automated cell counter (BioRad Laboratories, Hercules, CA, USA) following the manufacturer’s protocol. […] The cells were washed twice with PBS and overlayed with CMC + DMEM and incubated for 3 days. […] The percentage of cell survival was plotted for different treatment groups, and data were analyzed by one-way ANOVA using Tukey post hoc test.

[2] = test system: HIV; parameters: method as in PMID 8312047; settings: cited from earlier work
[3] = test system: Hepatitis B and D; parameters: method as in PMID 20007265; settings: cited from earlier work
[4] = Plasma pharmacokinetics of rhodamine-labeled constructs in mice; assay type: in vivo, mouse (Balb/c)
Protocol: (§1) Plasma pharmacokinetics (a) were determined for 72 h after injection. In a separate cohort of mice (females, n = 4 per group), major organ biodistribution was determined 4 h after injection by ex vivo whole-organ fluorescence imaging (b and c). The standard deviations were plotted as error bars.
(§2) Blood samples were collected from the tail vein at different time points and centrifuged to collect plasma. […] For the biodistribution, a separate cohort of mice (female, n = 4 per group) were euthanized four hours after the injection with proteins or saline control, and the brain, spleen, liver, lungs, kidneys, and heart were harvested and assessed by ex-vivo whole organ imaging using the In Vivo Imaging System (IVIS, Perkin Elmer). […] To determine pharmacokinetic parameters, plasma concentrations during the clearance phase (from the peak of the plasma concentration curve) were fit using a two-compartment pharmacokinetic model as described previously using GraphPad Prism[32].

[5] = Organ biodistribution by ex vivo whole-organ fluorescence imaging in mice; parameters: species or system mouse (Balb/c); settings: rhodamine-labeled, subcutaneous, 4 h post-injection, ex vivo IVIS imaging, female mice n = 4
Protocol: as §1, §2

Nc1nc(O)c2ncn(COC(CO)CO)c2n1 [GCV, ganciclovir]
cell viability of uninfected MEFs [1]: not affected

Enfuvirtide
IC50 [2]: nanomolar range

Myrcludex B
concentrations at which efficacy was demonstrated [3]: picomolar concentrations

NKLVYTGRL [P10]
Area Under Curve ([4]; 500 nmol/Kg subcutaneous, female mice n = 4 per group, plasma fluorescence over 72 h): 1185 ± 383 µM·h
time after which clearance from plasma began ([4]; subcutaneous, mouse plasma): 2 h
accumulation in the kidneys [5]: much lower levels than ELP-P10
accumulation in the liver [5]: much lower levels than ELP-P10
